# The NIST ThermoML archive (doi:10.1016/j.jct.2017.04.009)
# Assay: xn = mol fraction of the nth substance listed
# Settings: Liquid, pressure decay method
structure (smiles),measurement,setting,value
CCF [fluoroethane] + CCCCCCn1cc[n+](C)c1.F[B-](F)(F)F,binary diffusion coefficient,"303.2 K, 101 kPa, x1 = 0",1.23e-10 m2/s
same,binary diffusion coefficient,"313.2 K, 97.7 kPa, x1 = 0",1.91e-10 m2/s
same,binary diffusion coefficient,"323.2 K, 104.5 kPa, x1 = 0",2.54e-10 m2/s
same,binary diffusion coefficient,"333.2 K, 102.4 kPa, x1 = 0",3.36e-10 m2/s
same,binary diffusion coefficient,"343.2 K, 101.6 kPa, x1 = 0",4.2e-10 m2/s
FC(F)C(F)(F)F [pentafluoroethane] + CCCCCC[n+]1ccn(C)c1.O=S(=O)([N-]S(=O)(=O)C(F)(F)F)C(F)(F)F,binary diffusion coefficient,"303.2 K, 93.2 kPa, x1 = 0",1.02e-10 m2/s
same,binary diffusion coefficient,"313.2 K, 94.5 kPa, x1 = 0",1.48e-10 m2/s
same,binary diffusion coefficient,"323.2 K, 95.6 kPa, x1 = 0",2.24e-10 m2/s
same,binary diffusion coefficient,"333.2 K, 95.7 kPa, x1 = 0",3.13e-10 m2/s
same,binary diffusion coefficient,"343.2 K, 100.2 kPa, x1 = 0",4.21e-10 m2/s
CCCCCCn1cc[n+](C)c1.O=S(=O)([O-])C(F)(F)F [1-hexyl-3-methylimidazolium trifluoromethanesulfonate] + C=C(F)C(F)(F)F,binary diffusion coefficient,"303.2 K, 104.3 kPa, x2 = 0",1.46e-10 m2/s
same,binary diffusion coefficient,"313.2 K, 101.6 kPa, x2 = 0",2e-10 m2/s
same,binary diffusion coefficient,"323.2 K, 106.7 kPa, x2 = 0",2.66e-10 m2/s
same,binary diffusion coefficient,"333.2 K, 100.8 kPa, x2 = 0",3.76e-10 m2/s
same,binary diffusion coefficient,"343.2 K, 109 kPa, x2 = 0",4.97e-10 m2/s
CCCCCCn1cc[n+](C)c1.O=S(=O)([O-])C(F)(F)F [1-hexyl-3-methylimidazolium trifluoromethanesulfonate] + CC(F)(F)F,binary diffusion coefficient,"303.2 K, 97.3 kPa, x2 = 0",1.96e-10 m2/s
same,binary diffusion coefficient,"313.2 K, 110.5 kPa, x2 = 0",2.61e-10 m2/s
same,binary diffusion coefficient,"323.2 K, 105.4 kPa, x2 = 0",3.48e-10 m2/s
same,binary diffusion coefficient,"333.2 K, 108.8 kPa, x2 = 0",4.58e-10 m2/s
same,binary diffusion coefficient,"343.2 K, 106.3 kPa, x2 = 0",6.13e-10 m2/s
CCCCCCn1cc[n+](C)c1.O=S(=O)([O-])C(F)(F)F [1-hexyl-3-methylimidazolium trifluoromethanesulfonate] + FC(F)C(F)(F)F,binary diffusion coefficient,"303.2 K, 97.2 kPa, x2 = 0",2.38e-10 m2/s
same,binary diffusion coefficient,"313.2 K, 98.5 kPa, x2 = 0",3.05e-10 m2/s
same,binary diffusion coefficient,"323.2 K, 99.1 kPa, x2 = 0",4.17e-10 m2/s
same,binary diffusion coefficient,"333.2 K, 100.9 kPa, x2 = 0",5.25e-10 m2/s
same,binary diffusion coefficient,"343.2 K, 103.8 kPa, x2 = 0",6.19e-10 m2/s
"C=C(F)C(F)(F)F [2,3,3,3-tetrafluoro-1-propene] + CCCCCC[n+]1ccn(C)c1.O=S(=O)([N-]S(=O)(=O)C(F)(F)F)C(F)(F)F",binary diffusion coefficient,"303.2 K, 96.7 kPa, x1 = 0",1.39e-10 m2/s
same,binary diffusion coefficient,"313.2 K, 95.6 kPa, x1 = 0",1.99e-10 m2/s
same,binary diffusion coefficient,"323.2 K, 97.7 kPa, x1 = 0",2.75e-10 m2/s
same,binary diffusion coefficient,"333.2 K, 98.3 kPa, x1 = 0",4.01e-10 m2/s
same,binary diffusion coefficient,"343.2 K, 102.9 kPa, x1 = 0",5.96e-10 m2/s
"C=C(F)C(F)(F)F [2,3,3,3-tetrafluoro-1-propene] + CCCCCCn1cc[n+](C)c1.F[B-](F)(F)F",binary diffusion coefficient,"303.2 K, 158.3 kPa, x1 = 0",6.9e-11 m2/s
same,binary diffusion coefficient,"313.2 K, 168.4 kPa, x1 = 0",1.02e-10 m2/s
same,binary diffusion coefficient,"323.2 K, 170 kPa, x1 = 0",1.59e-10 m2/s
same,binary diffusion coefficient,"333.2 K, 185.3 kPa, x1 = 0",2.47e-10 m2/s
same,binary diffusion coefficient,"343.2 K, 189 kPa, x1 = 0",3.59e-10 m2/s
"CC(F)F [1,1-difluoroethane] + CCCCCCn1cc[n+](C)c1.F[B-](F)(F)F",binary diffusion coefficient,"303.2 K, 95.1 kPa, x1 = 0",7.4e-11 m2/s
same,binary diffusion coefficient,"313.2 K, 101.6 kPa, x1 = 0",1.07e-10 m2/s
same,binary diffusion coefficient,"323.2 K, 102 kPa, x1 = 0",1.59e-10 m2/s
same,binary diffusion coefficient,"333.2 K, 97.8 kPa, x1 = 0",2.07e-10 m2/s
same,binary diffusion coefficient,"343.2 K, 98.5 kPa, x1 = 0",2.56e-10 m2/s
CCF [fluoroethane] + CCCCCC[n+]1ccn(C)c1.O=S(=O)([N-]S(=O)(=O)C(F)(F)F)C(F)(F)F,binary diffusion coefficient,"303.2 K, 90.2 kPa, x1 = 0",1.28e-10 m2/s
same,binary diffusion coefficient,"313.2 K, 91.1 kPa, x1 = 0",2.08e-10 m2/s
same,binary diffusion coefficient,"323.2 K, 93.4 kPa, x1 = 0",2.96e-10 m2/s
same,binary diffusion coefficient,"333.2 K, 93 kPa, x1 = 0",3.46e-10 m2/s
same,binary diffusion coefficient,"343.2 K, 92.5 kPa, x1 = 0",4.13e-10 m2/s
CCCCCCn1cc[n+](C)c1.O=S(=O)([O-])C(F)(F)F [1-hexyl-3-methylimidazolium trifluoromethanesulfonate] + CCF,binary diffusion coefficient,"303.2 K, 94.5 kPa, x2 = 0",2.08e-10 m2/s
same,binary diffusion coefficient,"313.2 K, 103.8 kPa, x2 = 0",2.75e-10 m2/s
same,binary diffusion coefficient,"323.2 K, 97 kPa, x2 = 0",3.68e-10 m2/s
same,binary diffusion coefficient,"333.2 K, 94.4 kPa, x2 = 0",4.76e-10 m2/s
same,binary diffusion coefficient,"343.2 K, 98.1 kPa, x2 = 0",5.91e-10 m2/s
"CC(F)F [1,1-difluoroethane] + CCCCCC[n+]1ccn(C)c1.O=S(=O)([N-]S(=O)(=O)C(F)(F)F)C(F)(F)F",binary diffusion coefficient,"303.2 K, 87.7 kPa, x1 = 0",9.9e-11 m2/s
same,binary diffusion coefficient,"313.2 K, 89.1 kPa, x1 = 0",1.41e-10 m2/s
same,binary diffusion coefficient,"323.2 K, 92.5 kPa, x1 = 0",2.02e-10 m2/s
same,binary diffusion coefficient,"333.2 K, 96.4 kPa, x1 = 0",2.61e-10 m2/s
same,binary diffusion coefficient,"343.2 K, 93.8 kPa, x1 = 0",3.16e-10 m2/s
FCF [difluoromethane] + CCCCCC[n+]1ccn(C)c1.O=S(=O)([N-]S(=O)(=O)C(F)(F)F)C(F)(F)F,binary diffusion coefficient,"303.2 K, 92.8 kPa, x1 = 0",1.55e-10 m2/s
same,binary diffusion coefficient,"313.2 K, 93.9 kPa, x1 = 0",2.15e-10 m2/s
same,binary diffusion coefficient,"323.2 K, 94.4 kPa, x1 = 0",2.77e-10 m2/s
same,binary diffusion coefficient,"333.2 K, 94.3 kPa, x1 = 0",3.68e-10 m2/s
same,binary diffusion coefficient,"343.2 K, 95.2 kPa, x1 = 0",4.78e-10 m2/s
CCCCCC[n+]1ccn(C)c1.O=S(=O)([N-]S(=O)(=O)C(F)(F)F)C(F)(F)F + O=C=O,binary diffusion coefficient,"283.2 K, 91.5 kPa, x2 = 0",2.64e-10 m2/s
same,binary diffusion coefficient,"298.2 K, 99.7 kPa, x2 = 0",3.89e-10 m2/s
same,binary diffusion coefficient,"313.2 K, 103.4 kPa, x2 = 0",5.97e-10 m2/s
CCCCCCn1cc[n+](C)c1.O=S(=O)([O-])C(F)(F)F [1-hexyl-3-methylimidazolium trifluoromethanesulfonate] + CC(F)F,binary diffusion coefficient,"303.2 K, 86.8 kPa, x2 = 0",1.48e-10 m2/s
same,binary diffusion coefficient,"313.2 K, 95.7 kPa, x2 = 0",2.13e-10 m2/s
same,binary diffusion coefficient,"323.2 K, 98 kPa, x2 = 0",2.82e-10 m2/s
same,binary diffusion coefficient,"333.2 K, 101.9 kPa, x2 = 0",3.79e-10 m2/s
same,binary diffusion coefficient,"343.2 K, 99.1 kPa, x2 = 0",4.73e-10 m2/s
CCCCCCn1cc[n+](C)c1.F[B-](F)(F)F [1-hexyl-3-methylimidazolium tetrafluoroborate] + FCF,binary diffusion coefficient,"303.2 K, 95.7 kPa, x2 = 0",1.29e-10 m2/s
same,binary diffusion coefficient,"313.2 K, 102 kPa, x2 = 0",1.8e-10 m2/s
same,binary diffusion coefficient,"323.2 K, 99.1 kPa, x2 = 0",2.55e-10 m2/s
same,binary diffusion coefficient,"333.2 K, 103.5 kPa, x2 = 0",3.57e-10 m2/s
same,binary diffusion coefficient,"343.2 K, 99.9 kPa, x2 = 0",4.76e-10 m2/s
"CC(F)(F)F [1,1,1-trifluoroethane] + CCCCCCn1cc[n+](C)c1.F[B-](F)(F)F",binary diffusion coefficient,"303.2 K, 149.1 kPa, x1 = 0",7.7e-11 m2/s
same,binary diffusion coefficient,"313.2 K, 159.2 kPa, x1 = 0",1.15e-10 m2/s
same,binary diffusion coefficient,"323.2 K, 173.5 kPa, x1 = 0",1.89e-10 m2/s
same,binary diffusion coefficient,"333.2 K, 187.6 kPa, x1 = 0",2.62e-10 m2/s
same,binary diffusion coefficient,"343.2 K, 189 kPa, x1 = 0",3.39e-10 m2/s
FC(F)C(F)(F)F [pentafluoroethane] + CCCCCCn1cc[n+](C)c1.F[B-](F)(F)F,binary diffusion coefficient,"303.2 K, 151.8 kPa, x1 = 0",6.3e-11 m2/s
same,binary diffusion coefficient,"313.2 K, 164 kPa, x1 = 0",1.24e-10 m2/s
same,binary diffusion coefficient,"323.2 K, 169.7 kPa, x1 = 0",2.16e-10 m2/s
same,binary diffusion coefficient,"333.2 K, 176.2 kPa, x1 = 0",2.95e-10 m2/s
same,binary diffusion coefficient,"343.2 K, 172.3 kPa, x1 = 0",3.66e-10 m2/s
"CC(F)(F)F [1,1,1-trifluoroethane] + CCCCCC[n+]1ccn(C)c1.O=S(=O)([N-]S(=O)(=O)C(F)(F)F)C(F)(F)F",binary diffusion coefficient,"303.2 K, 104 kPa, x1 = 0",1.84e-10 m2/s
same,binary diffusion coefficient,"313.2 K, 98.7 kPa, x1 = 0",2.4e-10 m2/s
same,binary diffusion coefficient,"323.2 K, 99.5 kPa, x1 = 0",3.35e-10 m2/s
same,binary diffusion coefficient,"333.2 K, 102.6 kPa, x1 = 0",3.97e-10 m2/s
same,binary diffusion coefficient,"343.2 K, 99.7 kPa, x1 = 0",5.1e-10 m2/s
